Test results reported in patent US9765105B2, “Macrolide compound” (Pulike Biological Engineering, Inc., priority 2013, dated 2017).

Columns and labels:
[1] = test system: Streptococcus pneumoniae CMCC 31203; experiment: in vivo antibacterial test, survival of infected mice; design: species or system BALB/c mice; details: mice infected i.p. with Streptococcus pneumoniae; 5 mg per kg subcutaneous for 3 consecutive days; observed until the seventh day
[2] = acute oral toxicity test, LD50 by improved karber method; details: for LD50 at 7 days: both, Konmin, mouse, in vivo, po
[3] = test system: Staphylococcus aureus CVCC26003; experiment: in vitro susceptibility, MIC by mini broth dilution; format: cell-based; details: strain CVCC26003
How it was run: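 S. aureus CVCC26003 was revived and subcultured twice, 20 h each at 35° C, on solid medium, then diluted 1:200 in CAMHB liquid medium. Compounds received an 11-step two-fold DMSO dilution in parallel duplicate rows. MIC was read by mini broth dilution per NCCLS guidance.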

[4] = test system: Streptococcus equines CVCC556; experiment: as above; format: cell-based; details: strain CVCC556
How it was run: (§1)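 NCCLS-based mini broth dilution; inoculum from twice-streaked 35° C/20 h cultures, 1:200 in broth; compound two-fold series in DMSO, 11 steps, duplicates.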

[5] = test system: Pasteurella multocida CVCC399; experiment: as above; format: cell-based; details: strain CVCC399
How it was run: as §1

[6] = test system: Actinobacillus pleuropneumoniae CVCC262; experiment: as above; format: cell-based; details: strain CVCC262
How it was run: as §1

Haemophilus parasuis = experiment: as above; format: cell-based
How it was run: as §1

SMILES	Animal survival rate (surviving/total animals) [1]	LD50 at 7 days [2]	also measured
CC[C@@H]1OC(=O)[C@H](C)[C@H](OC2C[C@@](C)(OC)[C@](O)(CNC(C)C)[C@H](C)O2)[C@@H](C)[C@@H](O[C@@H]2O[C@H](C)C[C@H](N(C)C)[C@H]2O)[C@](C)(O)C[C@@H](C)NC[C@@H](C)[C@H](O)[C@]1(C)O (stereo partly drawn) [syzx-11, (2R,3S,4R,5S,8R,10R,11R,12S,13S,14R)-13-[(2,6-dideoxy-3-C-methyl-3-O-methyl-4-C-[(isopropylamino)methyl]-α-L-ribopyranosyl)oxy]-2-ethyl-3,4,10-trihydroxy-3,5,8,10,12,14-hexamethyl-11-[[3,4,6-trideoxy-3-(dimethylamino)-β-D-xylo-hexopyranosy]oxy]-1-oxa-7-azacyclopentadecan-15-one]	8/10	4200 mg/kg	–
CC[C@@H]1OC(=O)[C@H](C)[C@H](OC2C[C@@](C)(OC)[C@](O)(CNC3CC3)[C@H](C)O2)[C@@H](C)[C@@H](O[C@@H]2O[C@H](C)C[C@H](N(C)C)[C@H]2O)[C@](C)(O)C[C@@H](C)NC[C@@H](C)[C@H](O)[C@]1(C)O (stereo partly drawn) [syzx-6, (2R,3S,4R,5S,8R,10R,11R,12S,13S,14R)-13-[(2,6-dideoxy-3-C-methyl-3-O-methyl-4-C-[(cyclopropylamino)methyl]-α-L-ribopyranosyl)oxy]-2-ethyl-3,4,10-trihydroxy-3,5,8,10,12,14-hexamethyl-11-[[3,4,6-trideoxy-3-(dimethylamino)-β-D-xylo-hexopyranosy]oxy]-1-oxa-7-azacyclopentadecan-15-one]	8/10	2610 mg/kg	–
CC[C@@H]1OC(=O)[C@H](C)[C@H](OC2C[C@@](C)(OC)[C@](O)(CNCCOC)[C@H](C)O2)[C@@H](C)[C@@H](O[C@@H]2O[C@H](C)C[C@H](N(C)C)[C@H]2O)[C@](C)(O)C[C@@H](C)NC[C@@H](C)[C@H](O)[C@]1(C)O (stereo partly drawn) [syzx-58]	8/10	3550 mg/kg	–
CC[C@@H]1OC(=O)[C@H](C)[C@H](OC2C[C@@](C)(OC)[C@](O)(CN3CCCCC3)[C@H](C)O2)[C@@H](C)[C@@H](O[C@@H]2O[C@H](C)C[C@H](N(C)C)[C@H]2O)[C@](C)(O)C[C@@H](C)NC[C@@H](C)[C@H](O)[C@]1(C)O (stereo partly drawn) [syzx-15, (2R,3S,4R,5S,8R,10R,11R,12S,13S,14R)-13-[(2,6-dideoxy-3-C-methyl-3-O-methyl-4-C-[piperidinylmethyl]-α-L-ribopyranosyl)oxy]-2-ethyl-3,4,10-trihydroxy-3,5,8,10,12,14-hexamethyl-11-[[3,4,6-trideoxy-3-(dimethylamino)-β-D-xylo-hexopyranosy]oxy]-1-oxa-7-azacyclopentadecan-15-one]	8/10	2660 mg/kg	–
CCCN1C[C@H](C)[C@@H](O)[C@](C)(O)[C@@H](CC)OC(=O)[C@H](C)[C@@H](O[C@H]2C[C@@](C)(OC)[C@@H](O)[C@H](C)O2)[C@H](C)[C@@H](O[C@@H]2O[C@H](C)C[C@H](N(C)C)[C@H]2O)[C@](C)(O)C[C@H]1C [Gamithromycin, reference compound]	–	–	MIC values, Staphylococcus aureus CVCC26003 [3]: 0.25 ug/mi; MIC values, Streptococcus equines CVCC556 [4]: 0.5 ug/mi; MIC values, Pasteurella multocida CVCC399 [5]: 0.25 ug/mi; MIC values, Actinobacillus pleuropneumoniae CVCC262 [6]: 0.25 ug/mi; MIC values, Haemophilus parasuis (Haemophilus parasuis): 0.25 ug/mi; LD50 ([2]; per os, gavaged once, in 0.2% sodium carboxymethylcellulose, observed 7 days): 2165.2 mg/kg
CCNC[C@]1(O)[C@H](C)OC(O[C@@H]2[C@@H](C)[C@@H](O[C@@H]3O[C@H](C)C[C@H](N(C)C)[C@H]3O)[C@](C)(O)C[C@@H](C)NC[C@@H](C)[C@H](O)[C@](C)(O)[C@H](CC)OC(=O)[C@@H]2C)C[C@@]1(C)OC (stereo partly drawn) [syzx-10, (2R,3S,4R,5S,8R,10R,11R,12S,13S,14R)-13-[(2,6-dideoxy-3-C-methyl-3-O-methyl-4-C-[(ethylamino)methyl]-α-L-ribopyranosyl)oxy]-2-ethyl-3,4,10-trihydroxy-3,5,8,10,12,14-hexamethyl-11-[[3,4,6-trideoxy-3-(dimethylamino)-β-D-xylo-hexopyranosy]oxy]-1-oxa-7-azacyclopentadecan-15-one]	9/10	2810 mg/kg	–
CC[C@@H]1OC(=O)[C@H](C)[C@H](OC2C[C@@](C)(OC)[C@](O)(CNCc3cnc(C)cn3)[C@H](C)O2)[C@@H](C)[C@@H](O[C@@H]2O[C@H](C)C[C@H](N(C)C)[C@H]2O)[C@](C)(O)C[C@@H](C)NC[C@@H](C)[C@H](O)[C@]1(C)O (stereo partly drawn) [syzx-65, (2R,3S,4R,5S,8R,10R,11R,12S,13S,14R)-13-[(2,6-dideoxy-3-C-methyl-3-O-methyl-4-C-{[(5-methyl-pyrazin-2-yl-methyl)-amino]-methyl}-α-L-ribopyranosyl)oxy]-2-ethyl-3,4,10-trihydroxy-3,5,8,10,12,14-hexamethyl-11-[[3,4,6-trideoxy-3-(dimethylamino)-β-D-xylo-hexopyranosy]oxy]-1-oxa-7-azacyclopentadecan-15-one]	9/10	–	–
CCCCCNC[C@]1(O)[C@H](C)OC(O[C@@H]2[C@@H](C)[C@@H](O[C@@H]3O[C@H](C)C[C@H](N(C)C)[C@H]3O)[C@](C)(O)C[C@@H](C)NC[C@@H](C)[C@H](O)[C@](C)(O)[C@H](CC)OC(=O)[C@@H]2C)C[C@@]1(C)OC (stereo partly drawn) [syzx-47, (2R,3S,4R,5S,8R,10R,11R,12S,13S,14R)-13-[(2,6-dideoxy-3-C-methyl-3-O-methyl-4-C-[[n-pentyl-amino]-methyl]-α-L-ribopyranosyl)oxy]-2-ethyl-3,4,10-trihydroxy-3,5,8,10,12,14-hexamethyl-11-[[3,4,6-trideoxy-3-(dimethylamino)-β-D-xylo-hexopyranosy]oxy]-1-oxa-7-azacyclopentadecan-15-one]	9/10	–	–
CC[C@@H]1OC(=O)[C@H](C)[C@H](OC2C[C@@](C)(OC)[C@](O)(CNCCCOC)[C@H](C)O2)[C@@H](C)[C@@H](O[C@@H]2O[C@H](C)C[C@H](N(C)C)[C@H]2O)[C@](C)(O)C[C@@H](C)NC[C@@H](C)[C@H](O)[C@]1(C)O (stereo partly drawn) [syzx-66]	8/10	–	–
CC[C@@H]1OC(=O)[C@H](C)[C@H](OC2C[C@@](C)(OC)[C@](O)(CNCC3CCCCC3)[C@H](C)O2)[C@@H](C)[C@@H](O[C@@H]2O[C@H](C)C[C@H](N(C)C)[C@H]2O)[C@](C)(O)C[C@@H](C)NC[C@@H](C)[C@H](O)[C@]1(C)O (stereo partly drawn) [syzx-67]	8/10	–	–
CC[C@@H]1OC(=O)[C@H](C)[C@H](OC2C[C@@](C)(OC)[C@](O)(CNC3CCCC3)[C@H](C)O2)[C@@H](C)[C@@H](O[C@@H]2O[C@H](C)C[C@H](N(C)C)[C@H]2O)[C@](C)(O)C[C@@H](C)NC[C@@H](C)[C@H](O)[C@]1(C)O (stereo partly drawn) [syzx-30, (2R,3S,4R,5S,8R,10R,11R,12S,13S,14R)-13-[(2,6-dideoxy-3-C-methyl-3-O-methyl-4-C-[(cyclopentylamino)-methyl]-α-L-ribopyranosyl)oxy]-2-ethyl-3,4,10-trihydroxy-3,5,8,10,12,14-hexamethyl-11-[[3,4,6-trideoxy-3-(dimethylamino)-β-D-xylo-hexopyranosy]oxy]-1-oxa-7-azacyclopentadecan-15-one]	8/10	–	–
